Test results reported in article PMC7557402, “Evaluation of Nucleoside Analogs as Antimicrobials Targeting Unique Enzymes in Borrelia burgdorferi” (Pathogens, 2020).

Key:
[1] = system: B. burgdorferi strain N40; test: microbe, parasite or virus in culture; format: cell-based, Borrelia burgdorferi; details: Borreliella burgdorferi, N40; bioluminescence; stated after the 72 h results, time not given explicitly; read-out: IC50 (loss of B. burgdorferi vitality)
Method: B. burgdorferi N40 strain carrying a firefly luciferase gene (Bbluc), which is a derivative of the N40D10/E9 clone, was used in this study and is labeled as N40 throughout. N40 was cultured at 33 °C in Barbour-Stoenner-Kelly-II (BSK-II) medium supplemented with 6% rabbit serum (BSKII-RS). Bacterial counts were determined under 400× magnification using a hemocytometer and a dark field microscope.
The luciferase expressing B. burgdorferi N40 strain was grown to a density of ~10^8 spirochetes/mL and divided into two aliquots. One aliquot was incubated at 60 °C for 30 min to kill the spirochetes. […] The culture was mixed with the substrate by shaking in the dark, incubated at 37 °C for 5 min in a Spectramax M2 microplate reader (Molecular Devices, San Jose, CA, USA) and the bioluminescence measured. […]
Nucleosides and nucleoside analogs were prepared as sterile 1 mM stock solutions in distilled water (MSeA, IADO, FSBA, and dEt-ImmA) or in DMSO (PurTA). […] Photon emission due to luciferase activity was measured at three time points, after: (a) 24 h, (b) 72 h, and (c) 7 days of treatments to observe the effect of inhibitors on B. burgdorferi culture. At the end of each time point, bioluminescence was measured as described above. […]

B. burgdorferi N40 = test: Subculture without inhibitor after 7 days of treatment: bacteriostatic versus bactericidal; format: cell-based, Borrelia burgdorferi
Method: After 7 days of treatment, a 5 µL aliquot from each treatment tube (and untreated control) was added to 1 mL of BSKII-RS medium to allow any remaining viable spirochetes in the sample to grow. After incubation for 7–21 days at 33 °C, the survival of the spirochetes was determined using dark-field microscopy to observe motility and by employing bioluminescence measurements to assess vitality of the recovered culture.
To further differentiate between bacteriostatic versus bactericidal activities of MTAN inhibitors, we subcultured drug treated spirochetes in the absence of inhibitors to recover any live B. burgdorferi remaining after seven days of inhibitor treatment (summarized in Table 4). If non-motile spirochetes from treated cultures were able to grow back, the inhibitor was determined to have a bacteriostatic effect at the selected concentration. […] Spirochete survival was determined by both dark-field microscopy and bioluminescence measurements. Microscopic examination allowed assessment of motility of the spirochetes whereas bioluminescence assays assessed recovery and viability of B. burgdorferi cells. […] By comparison, a reduction in bioluminescence compared to the untreated control was observed after treatment with dEt-ImmA at a 0.4 µM or greater concentration. […] After seven days of treatment, live spirochetes were only recovered when concentrations of ≤0.4 µM were used for dEt-ImmA and IADO.

MtnN = MtnN (Borreliella burgdorferi, UniProt O50860); test: MTAN inhibition constants (competitive inhibition of MTA hydrolysis); format: biochemical, Borrelia burgdorferi; details: MTA 100 µM, inhibitor 0 to 100 µM, read-out: Ki (inhibition constant)
Chain of MtnN (O50860 entry or part of it): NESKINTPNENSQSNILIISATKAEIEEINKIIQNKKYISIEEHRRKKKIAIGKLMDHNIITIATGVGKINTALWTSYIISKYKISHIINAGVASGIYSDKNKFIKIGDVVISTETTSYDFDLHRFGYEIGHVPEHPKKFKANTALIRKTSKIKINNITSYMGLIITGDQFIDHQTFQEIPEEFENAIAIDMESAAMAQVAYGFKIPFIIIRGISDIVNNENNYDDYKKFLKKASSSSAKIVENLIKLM
Method: (§1) For the other compounds, inhibition constants (Ki’s) were determined as previously described, using an MTA concentration of 100 µM and varying the inhibitor concentration from 0 to 100 µM. The inhibited velocity (Vo’) and uninhibited velocity (Vo) values were determined, and the ratio of Vo’/Vo plotted as a function of inhibitor concentration. Ki values were calculated from these plots by fitting the data to the equation for competitive inhibition using GraphPad Prism:(2) Vo^′/Vo=Km+[S]/Km+[S]+(Km[I]/Ki)
(§2) The enzyme inhibition constant and delayed onset inhibition constant for dET-ImmA was previously reported.

Pfs = Pfs (Borreliella burgdorferi, UniProt O50162); test: as above; format: biochemical, Borrelia burgdorferi; details: MTA 100 µM, inhibitor 0 to 100 µM, read-out: Ki (inhibition constant)
Chain of Pfs (O50162 entry or part of it): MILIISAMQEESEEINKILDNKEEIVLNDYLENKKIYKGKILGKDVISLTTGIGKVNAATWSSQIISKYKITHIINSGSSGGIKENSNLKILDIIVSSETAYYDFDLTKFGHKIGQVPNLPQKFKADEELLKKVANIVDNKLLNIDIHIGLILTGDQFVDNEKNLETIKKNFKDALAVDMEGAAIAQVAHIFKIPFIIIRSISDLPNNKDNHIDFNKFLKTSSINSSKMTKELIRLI
Method: as §1, §2

## Nc1ncnc2c1ncn2[C@@H]1O[C@H](CI)[C@@H](O)[C@H]1O [IADO, 5′-deoxy-5′-iodoadenosine]
[1]
  IC50: ~1000 nM
B. burgdorferi N40; 2 µM and 10 µM, 21 days of subculture in media lacking MTAN inhibitors
  recovery of live spirochetes: no live spirochetes were recovered
B. burgdorferi N40; Dose: 2 µM, 10 µM, 7 days of treatment, then subculture
  Inhibitor Activity: Bactericidal
B. burgdorferi N40; after seven days of treatment
  concentrations at which live spirochetes were recovered: ≤ 0.4 µM
B. burgdorferi N40; after seven days of treatment, bacteriostatic at lower concentrations
  concentrations that exert bactericidal activity: ≥ 1 µM
MtnN
  Ki: 2470 nM
Pfs
  Ki: 900 nM
